From US9045445B2, “Glycine transporter-1 inhibitors, methods of making them, and uses thereof” (Albany Molecular Research, Inc., priority 2010, dated 2015)
Where a name gives a salt, the structure may show the parent alone.

Legend:
[1] = biological target: T1, glycine transporter-2 (GlyT-2) (Homo sapiens, UniProt Q9Y345); assay: [14C]glycine uptake assay in HEK-GlyT-2 transfected cells; type: cell-based; conditions: HEK-GlyT-2 cells
T1 construct: expressed in transfected cells
T1 sequence (Q9Y345 1-797): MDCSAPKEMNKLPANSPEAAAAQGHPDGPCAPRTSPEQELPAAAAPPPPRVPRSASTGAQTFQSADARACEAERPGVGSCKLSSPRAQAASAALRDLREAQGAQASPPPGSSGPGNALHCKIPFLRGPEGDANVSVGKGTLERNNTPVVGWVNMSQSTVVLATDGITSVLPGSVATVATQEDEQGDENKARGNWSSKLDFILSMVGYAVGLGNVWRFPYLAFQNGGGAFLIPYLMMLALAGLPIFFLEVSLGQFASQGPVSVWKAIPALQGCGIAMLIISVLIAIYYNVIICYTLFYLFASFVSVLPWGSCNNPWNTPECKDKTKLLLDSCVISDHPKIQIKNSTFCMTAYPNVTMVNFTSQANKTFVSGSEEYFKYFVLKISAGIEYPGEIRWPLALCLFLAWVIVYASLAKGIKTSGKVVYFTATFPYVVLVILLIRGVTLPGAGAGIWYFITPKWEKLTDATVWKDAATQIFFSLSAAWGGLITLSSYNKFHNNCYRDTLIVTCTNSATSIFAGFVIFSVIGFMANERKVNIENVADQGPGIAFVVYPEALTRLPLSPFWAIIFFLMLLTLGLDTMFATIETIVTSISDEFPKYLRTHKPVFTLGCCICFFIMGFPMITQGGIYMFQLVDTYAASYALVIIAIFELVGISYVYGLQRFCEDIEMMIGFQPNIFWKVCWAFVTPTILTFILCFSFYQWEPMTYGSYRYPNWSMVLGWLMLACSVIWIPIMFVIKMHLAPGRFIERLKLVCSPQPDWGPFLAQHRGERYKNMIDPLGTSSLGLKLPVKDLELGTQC

[2] = biological target: T2, glycine transporter-1 (GlyT-1) (Homo sapiens, UniProt P48067); assay: [14C]glycine uptake assay in JAR cells endogenously expressing GlyT-1 (scintillation proximity); type: cell-based; conditions: JAR cells, [14C]glycine 5 μM, 3 hour incubation; read-out: GlyT-1 IC50
T2 construct: JAR cells (ATCC#HTB-144), which endogenously express GlyT-1; host or cells: JAR human choriocarcinoma cells
T2 sequence (P48067 1-706): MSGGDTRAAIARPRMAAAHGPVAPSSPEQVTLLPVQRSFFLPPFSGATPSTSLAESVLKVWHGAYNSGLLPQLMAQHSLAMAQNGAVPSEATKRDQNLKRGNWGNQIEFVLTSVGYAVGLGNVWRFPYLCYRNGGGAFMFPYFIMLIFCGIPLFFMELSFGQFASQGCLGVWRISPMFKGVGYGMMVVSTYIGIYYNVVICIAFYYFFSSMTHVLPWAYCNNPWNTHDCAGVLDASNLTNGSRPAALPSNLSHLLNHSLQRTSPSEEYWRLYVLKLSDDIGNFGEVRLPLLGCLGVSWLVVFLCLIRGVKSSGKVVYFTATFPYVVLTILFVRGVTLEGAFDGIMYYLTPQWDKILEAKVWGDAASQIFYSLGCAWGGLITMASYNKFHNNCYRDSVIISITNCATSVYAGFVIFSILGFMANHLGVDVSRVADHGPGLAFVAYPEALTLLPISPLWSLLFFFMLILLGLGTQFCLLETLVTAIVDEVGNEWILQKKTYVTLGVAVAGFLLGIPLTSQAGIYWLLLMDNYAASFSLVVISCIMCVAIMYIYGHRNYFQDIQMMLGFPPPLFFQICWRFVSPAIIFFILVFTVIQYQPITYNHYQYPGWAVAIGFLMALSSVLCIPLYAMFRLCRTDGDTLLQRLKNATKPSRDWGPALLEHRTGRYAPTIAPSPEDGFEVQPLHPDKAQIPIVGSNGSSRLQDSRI
In short: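 IC50 comes from a four-parameter fit of nine-point, duplicate curves measuring inhibition of 5 μM [14C]glycine uptake, read by scintillation proximity after 3 h at 37 °C. Cells are human JAR, which express GlyT-1 endogenously, given 10 min compound pre-treatment in pH 7.4 buffer with 5 mM alanine and 0.75% DMSO.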

Compound CCS(=O)(=O)N1CCN(C2(CNC(=O)c3c(C)cc(F)cc3OC)CCCCCC2)CC1 [compound 87, N-((1-(4-(Ethylsulfonyl)piperazin-1-yl)cycloheptyl)methyl)-4-fluoro-2-methoxy-6-methylbenzamide Hydrochloride] has an IC50 [1] of over 75000 nM and an IC50 [2] of 155 nM.

Compound CCS(=O)(=O)N1CCN(C2(CNC(=O)c3c(Cl)cccc3Cl)CCCCCC2)CC1 [compound 88, 2,6-Dichloro-N-((1-(4-(ethylsulfonyl)piperazin-1-yl)cycloheptyl)methyl) benzamide Hydrochloride] has an IC50 [1] of over 75000 nM and an IC50 [2] of 195 nM.

In the case of Nc1cccc(Cl)c1C(=O)NCC1(N2CCN(S(=O)(=O)c3ccccc3)CC2)CCCCC1 [compound 89, 2-Amino-6-chloro-N-((1-(4-(phenylsulfonyl)piperazin-1-yl)cyclohexyl)methyl) benzamide Hydrochloride], the IC50 [1] is reported as over 75000 nM and the IC50 [2] is reported as 2290 nM.

For CS(=O)(=O)N1CCN(C2(CNC(=O)c3c(N)cccc3Cl)CCCCC2)CC1 [compound 90, 2-Amino-6-chloro-N-((1-(4-(methylsulfonyl)piperazin-1-yl)cyclohexyl)methyl) benzamide Hydrochloride], the IC50 [1] was over 75000 nM and the IC50 [2] was 339 nM.

Work on CC(C)CS(=O)(=O)N1CCN(C2(CNC(=O)c3c(N)cccc3Cl)CCCCC2)CC1 [compound 92, 2-Amino-6-chloro-N-((1-(4-(isobutylsulfonyl)piperazin-1-yl)cyclohexyl)methyl) benzamide Hydrochloride] yielded an IC50 [1] of 54800 nM and an IC50 [2] of 952 nM.

O=C(NCC1(N2CCN(S(=O)(=O)C3CCC3)CC2)CCCCC1)c1ccc(Cl)cc1Cl [compound 93, 2,4-Dichloro-N-((1-(4-(cyclobutylsulfonyl)piperazin-1-yl)cyclohexyl)methyl)benzamide Hydrochloride] gave an IC50 [1] of over 75000 nM and an IC50 [2] of 319 nM.

Cc1ccc(C(=O)NCC2(N3CCN(S(=O)(=O)c4cn(C)cn4)CC3)CCCCC2)c(C)c1 [compound 94, 2,4-Dimethyl-N-((1-(4-(1-methyl-1H-imidazol-4-ylsulfonyl)piperazin-1-yl)cyclohexyl)methyl) benzamide Hydrochloride] showed an IC50 [1] of over 75000 nM and an IC50 [2] of 13 nM.

With Cc1cccc(C)c1C(=O)NCC1(N2CCN(S(=O)(=O)c3cn(C)cn3)CC2)CCCCC1 [compound 95, 2,6-Dimethyl-N-((1-(4-(1-methyl-1H-imidazol-4-ylsulfonyl)piperazin-1-yl)cyclohexyl)methyl) benzamide Hydrochloride] the IC50 [1] was over 75000 nM and the IC50 [2] was 1 nM.

Work on COc1cccc(F)c1C(=O)NCC1(N2CCN(S(=O)(=O)c3cn(C)cn3)CC2)CCCCC1 [compound 96, 2-Fluoro-6-methoxy-N-((1-(4-(1-methyl-1H-imidazol-4-ylsulfonyl)piperazin-1-yl)cyclohexyl)methyl) benzamide Hydrochloride] yielded an IC50 [1] of over 75000 nM and an IC50 [2] of 2 nM.

Compound Cn1cnc(S(=O)(=O)N2CCN(C3(CNC(=O)c4ccc(Cl)cc4Cl)CCCCC3)CC2)c1 [compound 97, 2,4-Dichloro-N-((1-(4-(1-methyl-1H-imidazol-4-ylsulfonyl)piperazin-1-yl)cyclohexyl)methyl) benzamide Hydrochloride] has an IC50 [1] of over 75000 nM and an IC50 [2] of 2 nM.

With Cn1cnc(S(=O)(=O)N2CCN(C3(CNC(=O)c4c(F)cccc4F)CCCCC3)CC2)c1 [compound 98, 2,6-Difluoro-N-((1-(4-(1-methyl-1H-imidazol-4-ylsulfonyl)piperazin-1-yl)cyclohexyl)methyl) benzamide Hydrochloride] the IC50 [1] was over 75000 nM and the IC50 [2] was 4 nM.

With Cn1cnc(S(=O)(=O)N2CCN(C3(CNC(=O)c4c(N)cccc4Cl)CCCCC3)CC2)c1 [compound 99, 2-Amino-6-chloro-N-((1-(4-(1-methyl-1H-imidazol-4-ylsulfonyl)piperazin-1-yl)cyclohexyl)methyl) benzamide Hydrochloride] the IC50 [1] was over 75000 nM and the IC50 [2] was 2 nM.

Cn1cnc(S(=O)(=O)N2CCN(C3(CNC(=O)c4ccc(F)cc4F)CCCCC3)CC2)c1 [compound 100, 2,4-Difluoro-N-((1-(4-(1-methyl-1H-imidazol-4-ylsulfonyl)piperazin-1-yl)cyclohexyl)methyl) benzamide Hydrochloride] showed an IC50 [1] of over 75000 nM and an IC50 [2] of 30 nM.

Cn1cnc(S(=O)(=O)N2CCN(C3(CNC(=O)c4ccc(F)cc4Cl)CCCCC3)CC2)c1 [compound 101, 2-Chloro-4-fluoro-N-((1-(4-(1-methyl-1H-imidazol-4-ylsulfonyl)piperazin-1-yl)cyclohexyl)methyl) benzamide Hydrochloride] gave an IC50 [1] of over 75000 nM and an IC50 [2] of 2 nM.

Cc1cc(F)ccc1C(=O)NCC1(N2CCN(S(=O)(=O)c3cn(C)cn3)CC2)CCCCC1 [compound 102, 4-Fluoro-2-methyl-N-((1-(4-(1-methyl-1H-imidazol-4-ylsulfonyl)piperazin-1-yl)cyclohexyl)methyl) benzamide Hydrochloride] was tested, and the IC50 [1] was over 75000 nM and the IC50 [2] was 10 nM.

COc1cc(F)cc(C)c1C(=O)NCC1(N2CCN(S(=O)(=O)c3cn(C)cn3)CC2)CCCC1 [compound 103, 4-Fluoro-2-methoxy-6-methyl-N-((1-(4-(1-methyl-1H-imidazol-4-ylsulfonyl)piperazin-1-yl)cyclopentyl)methyl) benzamide Hydrochloride] showed an IC50 [1] of over 75000 nM and an IC50 [2] of 45 nM.

Cn1cnc(S(=O)(=O)N2CCN(C3(CNC(=O)c4c(F)cccc4F)CCCC3)CC2)c1 [compound 104, 2,6-Difluoro-N-((1-(4-(1-methyl-1H-imidazol-4-ylsulfonyl)piperazin-1-yl)cyclopentyl)methyl) benzamide Hydrochloride] showed an IC50 [1] of over 75000 nM and an IC50 [2] of 346 nM.

Cn1cnc(S(=O)(=O)N2CCN(C3(CNC(=O)c4ccc(Cl)cc4Cl)CCCC3)CC2)c1 [compound 105, Hydrochloride] gave an IC50 [1] of over 75000 nM and an IC50 [2] of 102 nM.

Compound Cn1cnc(S(=O)(=O)N2CCN(C3(CNC(=O)c4c(Cl)cccc4Cl)CCCCCC3)CC2)c1 [compound 106, 2,6-Dichloro-N-((1-(4-(1-methyl-1H-imidazol-4-ylsulfonyl)piperazin-1-yl)cycloheptyl)methyl) benzamide Hydrochloride] has an IC50 [1] of over 75000 nM and an IC50 [2] of 5 nM.

Work on Cn1cnc(S(=O)(=O)N2CCN(C3(CNC(=O)c4c(F)cccc4F)CCCCCC3)CC2)c1 [compound 107, 2,6-Difluoro-N-((1-(4-(1-methyl-1H-imidazol-4-ylsulfonyl)piperazin-1-yl)cycloheptyl)methyl) benzamide Hydrochloride] yielded an IC50 [1] of over 75000 nM and an IC50 [2] of 9 nM.

Cn1cc(S(=O)(=O)N2CCN(C3(CNC(=O)c4c(F)cccc4F)CCCC3)CC2)nn1 [compound 108, 2,6-Difluoro-N-((1-(4-(1-methyl-1H-1,2,3-triazol-4-ylsulfonyl)piperazin-1-yl)cyclopentyl)methyl) benzamide Hydrochloride] gave an IC50 [1] of over 75000 nM and an IC50 [2] of 55 nM.

Cn1cc(S(=O)(=O)N2CCN(C3(CNC(=O)c4c(Cl)cccc4Cl)CCCC3)CC2)nn1 [compound 109, 2,6-Dichloro-N-((1-(4-(1-methyl-1H-l,2,3-triazol-4-ylsulfonyl)piperazin-1-yl)cyclopentyl)methyl) benzamide Hydrochloride] gave an IC50 [1] of over 75000 nM and an IC50 [2] of 31 nM.

Work on Cn1cc(S(=O)(=O)N2CCN(C3(CNC(=O)c4ccc(Cl)cc4Cl)CCCC3)CC2)nn1 [compound 110, 2,4-Dichloro-N-((1-(4-(1-methyl-1H-1,2,3-triazol-4-ylsulfonyl)piperazin-1-yl)cyclopentyl)methyl) benzamide Hydrochloride] yielded an IC50 [1] of over 75000 nM and an IC50 [2] of 27 nM.
